Tests used:
[1] = target: Sodium-dependent dopamine transporter (Homo sapiens, UniProt Q01959)
[2] = target: Sodium-dependent serotonin transporter (Homo sapiens, UniProt P31645)
Prothrombin = Prothrombin (Homo sapiens, UniProt P00734); format: functional
Adenosine receptor A3 = target: T1, Adenosine receptor A3 (Homo sapiens, UniProt P0DMS8)
T1 sequence (P0DMS8 whole entry): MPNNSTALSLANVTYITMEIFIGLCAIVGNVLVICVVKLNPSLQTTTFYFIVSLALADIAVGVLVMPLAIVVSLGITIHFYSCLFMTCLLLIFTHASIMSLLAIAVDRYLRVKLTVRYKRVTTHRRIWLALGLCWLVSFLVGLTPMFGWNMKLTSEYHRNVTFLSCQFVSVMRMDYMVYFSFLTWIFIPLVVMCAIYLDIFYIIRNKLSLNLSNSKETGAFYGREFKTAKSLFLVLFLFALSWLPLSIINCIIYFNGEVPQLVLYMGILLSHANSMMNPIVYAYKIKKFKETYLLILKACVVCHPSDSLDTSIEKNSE

Mu-type opioid receptor = Mu-type opioid receptor (Homo sapiens, UniProt P35372)
Chain of Mu-type opioid receptor (P35372 whole entry): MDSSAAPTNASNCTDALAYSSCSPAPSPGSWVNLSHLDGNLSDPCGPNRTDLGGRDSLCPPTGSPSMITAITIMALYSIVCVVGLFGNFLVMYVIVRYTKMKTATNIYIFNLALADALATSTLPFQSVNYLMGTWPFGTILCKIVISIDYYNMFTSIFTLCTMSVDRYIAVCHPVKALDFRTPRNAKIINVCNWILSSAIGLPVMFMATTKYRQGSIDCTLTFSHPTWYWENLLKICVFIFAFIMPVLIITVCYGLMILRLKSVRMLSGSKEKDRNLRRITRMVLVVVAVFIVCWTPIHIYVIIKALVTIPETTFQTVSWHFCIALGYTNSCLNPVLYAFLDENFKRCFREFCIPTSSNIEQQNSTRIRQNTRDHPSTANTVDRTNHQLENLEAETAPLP

[3] = target: T2, Alpha-1A adrenergic receptor (Homo sapiens, UniProt P35348); format: functional, cell-based
T2 sequence (P35348 whole entry): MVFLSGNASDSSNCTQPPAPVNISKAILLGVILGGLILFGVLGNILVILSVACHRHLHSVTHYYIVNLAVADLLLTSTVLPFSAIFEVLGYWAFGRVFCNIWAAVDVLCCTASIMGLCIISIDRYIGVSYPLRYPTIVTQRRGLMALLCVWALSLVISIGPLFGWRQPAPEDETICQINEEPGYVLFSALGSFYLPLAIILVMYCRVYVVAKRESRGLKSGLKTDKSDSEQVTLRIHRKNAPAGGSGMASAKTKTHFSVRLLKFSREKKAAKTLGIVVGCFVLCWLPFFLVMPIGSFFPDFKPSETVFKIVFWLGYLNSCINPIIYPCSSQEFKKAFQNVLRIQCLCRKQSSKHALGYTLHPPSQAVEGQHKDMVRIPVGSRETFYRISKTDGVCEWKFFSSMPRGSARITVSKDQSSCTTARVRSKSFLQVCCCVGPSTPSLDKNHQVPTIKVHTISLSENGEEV

Thromboxane A2 receptor [4] = target: T3, Thromboxane A2 receptor (Homo sapiens, UniProt P21731); format: functional, cell-based
T3 sequence (P21731 whole entry): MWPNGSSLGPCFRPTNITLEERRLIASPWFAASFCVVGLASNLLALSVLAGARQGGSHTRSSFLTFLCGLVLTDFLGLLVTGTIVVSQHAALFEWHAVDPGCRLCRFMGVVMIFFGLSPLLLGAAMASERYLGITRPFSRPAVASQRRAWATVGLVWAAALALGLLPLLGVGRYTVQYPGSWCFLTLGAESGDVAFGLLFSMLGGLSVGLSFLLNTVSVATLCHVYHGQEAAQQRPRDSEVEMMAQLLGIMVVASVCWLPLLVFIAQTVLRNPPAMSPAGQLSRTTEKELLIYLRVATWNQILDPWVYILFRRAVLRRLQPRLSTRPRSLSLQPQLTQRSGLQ

[5] = target: Voltage-gated inwardly rectifying potassium channel KCNH2 (Homo sapiens, UniProt Q12809); format: functional; settings: read-out: AC50
[6] = target: 5-hydroxytryptamine receptor 2B (Homo sapiens, UniProt P41595); format: functional, cell-based
Chain of 5-hydroxytryptamine receptor 2B (P41595 whole entry): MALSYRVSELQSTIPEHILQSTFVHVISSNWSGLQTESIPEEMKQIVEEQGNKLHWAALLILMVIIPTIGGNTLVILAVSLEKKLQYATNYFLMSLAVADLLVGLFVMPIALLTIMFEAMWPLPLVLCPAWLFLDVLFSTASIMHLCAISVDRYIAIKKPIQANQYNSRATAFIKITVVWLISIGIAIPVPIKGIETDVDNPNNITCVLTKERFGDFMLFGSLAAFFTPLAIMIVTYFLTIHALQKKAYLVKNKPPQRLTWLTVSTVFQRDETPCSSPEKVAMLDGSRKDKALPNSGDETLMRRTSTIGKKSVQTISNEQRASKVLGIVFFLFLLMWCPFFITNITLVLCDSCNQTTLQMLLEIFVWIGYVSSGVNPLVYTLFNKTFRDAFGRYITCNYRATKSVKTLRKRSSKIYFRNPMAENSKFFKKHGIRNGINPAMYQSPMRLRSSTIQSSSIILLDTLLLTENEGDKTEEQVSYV

D(3) dopamine receptor = D(3) dopamine receptor (Homo sapiens, UniProt P35462)
Chain of D(3) dopamine receptor (P35462 whole entry): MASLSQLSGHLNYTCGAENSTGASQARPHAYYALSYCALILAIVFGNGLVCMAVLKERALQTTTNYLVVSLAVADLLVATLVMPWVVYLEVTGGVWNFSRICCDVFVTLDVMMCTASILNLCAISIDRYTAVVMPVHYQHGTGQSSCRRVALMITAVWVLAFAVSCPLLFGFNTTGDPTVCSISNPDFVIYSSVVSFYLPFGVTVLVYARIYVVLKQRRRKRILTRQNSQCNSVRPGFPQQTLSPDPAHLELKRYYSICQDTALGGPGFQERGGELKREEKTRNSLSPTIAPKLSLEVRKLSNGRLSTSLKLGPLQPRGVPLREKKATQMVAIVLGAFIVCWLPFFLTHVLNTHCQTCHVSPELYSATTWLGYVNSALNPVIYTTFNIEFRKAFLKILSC

[7] = target: T4, Prostaglandin G/H synthase 1 (Homo sapiens, UniProt P23219); format: functional
T4 sequence (P23219 whole entry): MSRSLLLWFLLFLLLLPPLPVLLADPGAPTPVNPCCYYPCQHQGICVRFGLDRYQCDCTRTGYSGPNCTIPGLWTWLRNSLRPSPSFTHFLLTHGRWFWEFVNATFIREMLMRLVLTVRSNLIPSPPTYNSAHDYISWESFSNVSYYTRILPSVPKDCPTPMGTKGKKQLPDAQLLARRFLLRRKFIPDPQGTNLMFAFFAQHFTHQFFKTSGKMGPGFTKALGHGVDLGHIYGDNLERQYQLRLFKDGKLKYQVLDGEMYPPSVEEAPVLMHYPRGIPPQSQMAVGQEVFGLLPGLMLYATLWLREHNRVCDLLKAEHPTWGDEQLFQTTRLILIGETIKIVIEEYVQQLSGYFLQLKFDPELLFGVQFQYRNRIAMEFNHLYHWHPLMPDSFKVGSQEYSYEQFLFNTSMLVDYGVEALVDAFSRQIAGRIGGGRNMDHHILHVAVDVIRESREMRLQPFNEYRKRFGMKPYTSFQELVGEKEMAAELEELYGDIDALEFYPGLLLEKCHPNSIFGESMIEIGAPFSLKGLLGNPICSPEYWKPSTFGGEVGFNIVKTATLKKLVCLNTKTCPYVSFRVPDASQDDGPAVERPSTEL

Progesterone receptor = target: T5, Progesterone receptor (Homo sapiens, UniProt P06401)
T5 sequence (P06401 whole entry): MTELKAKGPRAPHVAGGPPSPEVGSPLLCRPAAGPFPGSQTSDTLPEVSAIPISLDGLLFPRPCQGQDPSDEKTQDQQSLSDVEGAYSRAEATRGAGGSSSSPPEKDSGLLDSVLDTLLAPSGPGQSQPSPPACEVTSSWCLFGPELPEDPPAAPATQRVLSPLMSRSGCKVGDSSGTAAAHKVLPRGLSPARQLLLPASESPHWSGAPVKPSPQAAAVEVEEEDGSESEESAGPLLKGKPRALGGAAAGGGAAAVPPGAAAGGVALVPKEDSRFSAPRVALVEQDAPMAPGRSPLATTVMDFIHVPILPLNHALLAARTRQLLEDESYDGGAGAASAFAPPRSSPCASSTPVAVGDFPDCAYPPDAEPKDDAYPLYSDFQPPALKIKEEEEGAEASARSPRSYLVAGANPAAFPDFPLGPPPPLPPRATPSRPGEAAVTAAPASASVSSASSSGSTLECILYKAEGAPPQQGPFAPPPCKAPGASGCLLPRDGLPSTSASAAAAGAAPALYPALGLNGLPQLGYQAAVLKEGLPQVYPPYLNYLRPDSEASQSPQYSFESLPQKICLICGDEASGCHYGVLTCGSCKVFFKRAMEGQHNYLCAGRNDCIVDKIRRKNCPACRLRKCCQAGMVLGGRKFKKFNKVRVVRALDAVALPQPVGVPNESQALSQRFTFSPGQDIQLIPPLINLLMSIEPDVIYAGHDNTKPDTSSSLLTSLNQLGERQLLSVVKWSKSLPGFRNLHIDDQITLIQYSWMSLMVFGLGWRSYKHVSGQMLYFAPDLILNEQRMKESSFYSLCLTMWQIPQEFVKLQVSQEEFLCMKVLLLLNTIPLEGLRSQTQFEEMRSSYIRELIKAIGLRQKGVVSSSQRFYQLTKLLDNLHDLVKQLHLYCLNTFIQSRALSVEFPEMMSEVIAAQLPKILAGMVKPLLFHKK

Histamine H3 receptor = Histamine H3 receptor (Homo sapiens, UniProt Q9Y5N1)
Chain of Histamine H3 receptor (Q9Y5N1 whole entry): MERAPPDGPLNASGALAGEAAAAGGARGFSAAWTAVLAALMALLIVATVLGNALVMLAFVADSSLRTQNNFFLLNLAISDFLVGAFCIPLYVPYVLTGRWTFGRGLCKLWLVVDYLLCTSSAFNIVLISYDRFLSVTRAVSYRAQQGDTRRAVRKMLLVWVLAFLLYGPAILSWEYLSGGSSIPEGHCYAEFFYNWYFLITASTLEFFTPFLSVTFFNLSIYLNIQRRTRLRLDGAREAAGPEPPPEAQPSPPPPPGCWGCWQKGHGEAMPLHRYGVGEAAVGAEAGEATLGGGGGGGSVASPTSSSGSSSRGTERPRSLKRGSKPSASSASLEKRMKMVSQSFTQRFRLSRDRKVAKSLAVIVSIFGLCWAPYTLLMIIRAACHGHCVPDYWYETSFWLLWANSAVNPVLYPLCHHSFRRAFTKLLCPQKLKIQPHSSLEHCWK

Thromboxane A2 receptor [8] = target: T3, Thromboxane A2 receptor; format: functional, cell-based; remark: listed apart in the source
[9] = target: T4, Prostaglandin G/H synthase 1; format: functional; remark: listed apart in the source
Acetylcholinesterase = Acetylcholinesterase (Homo sapiens, UniProt P22303); format: functional
Chain of Acetylcholinesterase (P22303 whole entry): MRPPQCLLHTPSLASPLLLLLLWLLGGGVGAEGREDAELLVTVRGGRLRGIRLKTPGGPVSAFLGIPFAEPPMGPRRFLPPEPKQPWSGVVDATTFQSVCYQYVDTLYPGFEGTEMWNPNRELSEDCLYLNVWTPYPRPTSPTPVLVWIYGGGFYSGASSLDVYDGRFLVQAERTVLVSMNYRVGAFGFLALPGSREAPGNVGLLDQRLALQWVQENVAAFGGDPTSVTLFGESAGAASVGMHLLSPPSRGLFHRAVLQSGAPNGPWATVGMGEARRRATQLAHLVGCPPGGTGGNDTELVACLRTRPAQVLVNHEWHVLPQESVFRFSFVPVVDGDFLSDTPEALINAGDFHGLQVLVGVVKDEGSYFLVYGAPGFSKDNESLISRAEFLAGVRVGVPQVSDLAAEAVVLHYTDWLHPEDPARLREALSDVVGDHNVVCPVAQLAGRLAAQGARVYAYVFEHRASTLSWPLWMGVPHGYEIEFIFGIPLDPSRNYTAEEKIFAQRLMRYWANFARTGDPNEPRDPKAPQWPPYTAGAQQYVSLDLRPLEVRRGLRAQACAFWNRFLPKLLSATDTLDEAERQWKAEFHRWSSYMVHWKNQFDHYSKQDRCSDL

D(1A) dopamine receptor = D(1A) dopamine receptor (Homo sapiens, UniProt P21728)
Chain of D(1A) dopamine receptor (P21728 whole entry): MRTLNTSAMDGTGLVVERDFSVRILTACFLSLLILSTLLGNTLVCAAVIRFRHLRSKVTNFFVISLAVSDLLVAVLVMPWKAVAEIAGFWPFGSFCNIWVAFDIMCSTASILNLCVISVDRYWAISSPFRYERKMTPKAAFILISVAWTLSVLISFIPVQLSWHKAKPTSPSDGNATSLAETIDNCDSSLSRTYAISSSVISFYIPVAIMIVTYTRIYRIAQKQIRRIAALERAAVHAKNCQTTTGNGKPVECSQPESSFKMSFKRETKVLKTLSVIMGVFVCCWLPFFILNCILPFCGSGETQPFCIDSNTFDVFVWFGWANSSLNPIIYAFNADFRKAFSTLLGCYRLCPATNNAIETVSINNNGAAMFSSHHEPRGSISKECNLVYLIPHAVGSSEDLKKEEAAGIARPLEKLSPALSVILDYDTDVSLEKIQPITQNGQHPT
Note: assay procedure not described here.

Chain of Sodium-dependent dopamine transporter (Q01959 whole entry): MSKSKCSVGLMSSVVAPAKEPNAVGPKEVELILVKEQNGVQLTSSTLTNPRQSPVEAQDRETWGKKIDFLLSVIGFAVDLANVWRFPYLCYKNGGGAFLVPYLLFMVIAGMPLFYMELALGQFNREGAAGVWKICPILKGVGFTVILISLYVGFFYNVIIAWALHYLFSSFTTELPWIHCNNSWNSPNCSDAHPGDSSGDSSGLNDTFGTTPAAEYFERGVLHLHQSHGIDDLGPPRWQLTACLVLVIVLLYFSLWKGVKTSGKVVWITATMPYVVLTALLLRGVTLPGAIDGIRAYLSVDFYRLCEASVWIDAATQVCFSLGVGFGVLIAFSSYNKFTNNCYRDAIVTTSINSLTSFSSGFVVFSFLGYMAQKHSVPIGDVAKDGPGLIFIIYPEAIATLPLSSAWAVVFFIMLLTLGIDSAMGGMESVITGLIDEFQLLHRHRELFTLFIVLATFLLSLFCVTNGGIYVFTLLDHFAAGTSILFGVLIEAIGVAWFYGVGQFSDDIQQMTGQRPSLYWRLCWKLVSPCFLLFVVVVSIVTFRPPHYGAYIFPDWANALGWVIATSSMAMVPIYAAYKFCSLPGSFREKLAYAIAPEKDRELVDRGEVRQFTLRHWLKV
Chain of Sodium-dependent serotonin transporter (P31645 whole entry): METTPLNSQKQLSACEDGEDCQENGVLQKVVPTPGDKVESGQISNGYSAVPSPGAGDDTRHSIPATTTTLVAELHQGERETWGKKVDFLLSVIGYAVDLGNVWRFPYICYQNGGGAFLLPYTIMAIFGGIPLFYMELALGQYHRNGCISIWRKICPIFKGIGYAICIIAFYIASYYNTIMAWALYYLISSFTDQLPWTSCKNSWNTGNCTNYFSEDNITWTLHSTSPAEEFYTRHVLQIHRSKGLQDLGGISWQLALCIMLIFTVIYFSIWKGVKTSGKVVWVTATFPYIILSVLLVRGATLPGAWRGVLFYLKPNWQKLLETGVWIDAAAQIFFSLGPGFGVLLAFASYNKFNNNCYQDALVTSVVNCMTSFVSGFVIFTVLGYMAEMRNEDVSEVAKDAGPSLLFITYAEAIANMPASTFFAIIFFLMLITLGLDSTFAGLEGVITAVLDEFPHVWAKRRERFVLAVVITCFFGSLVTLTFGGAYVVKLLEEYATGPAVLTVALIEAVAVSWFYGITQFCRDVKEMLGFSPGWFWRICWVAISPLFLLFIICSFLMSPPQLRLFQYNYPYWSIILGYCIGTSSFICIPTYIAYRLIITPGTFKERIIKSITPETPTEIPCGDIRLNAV

Compound | AC50 [1] [µM] | AC50 [2] [µM] | AC50 (Prothrombin) [µM] | AC50 (Adenosine receptor A3) [µM] | AC50 (Mu-type opioid receptor) [µM] | AC50 [3] [µM] | AC50 (Thromboxane A2 receptor [4]) [µM] | AC50 [5] [µM] | AC50 [6] [µM] | AC50 (D(3) dopamine receptor) [µM] | AC50 [7] [µM] | AC50 (Progesterone receptor) [µM] | AC50 (Histamine H3 receptor) [µM] | AC50 (Thromboxane A2 receptor [8]) [µM] | AC50 [9] [µM] | AC50 (Acetylcholinesterase) [µM] | AC50 (D(1A) dopamine receptor) [µM]
C[C@@H]1C[C@H]2[C@@H]3C[C@H](F)C4=CC(=O)C=C[C@]4(C)[C@@]3(F)[C@@H](O)C[C@]2(C)[C@@]1(O)C(=O)COC(=O)C(C)(C)C [FLUMETHASONE PIVALATE] | > 30 | > 30 | > 30 | > 30 | > 30 | > 30 | > 30 | > 30 | > 30 | > 30 | > 30 | 5.85 | > 30 | > 30 | > 30 | > 30 | > 30
CCOc1ccc(/C=C2\NCCc3cc(OCC)c(OCC)cc32)cc1OCC [DROTAVERINE] | > 30 | 3 | > 30 | 26.4 | > 10 | > 10 | > 30 | 2.9 | > 30 | > 30 | > 10 | > 30 | > 30 | > 30 | 9.33 | 26.1 | > 30
O=C1NCC2(CCN(CCc3ccccc3)CC2)O1 [FENSPIRIDE] | > 30 | > 30 | > 30 | > 30 | > 30 | > 30 | > 30 | > 30 | > 30 | > 30 | > 30 | > 30 | > 30 | > 30 | > 30 | > 30 | 20.8
O=C(Nc1ccccc1)OCC(CN1CCCCC1)OC(=O)Nc1ccccc1 (configuration not stated) [DIPERODON] | > 30 | > 30 | > 30 | > 30 | 11.2 | > 30 | > 30 | 5.4 | > 30 | 23.5 | > 30 | > 30 | > 30 | > 30 | > 30 | > 30 | > 30
CC/C=C\C/C=C\C/C=C\C/C=C\C/C=C\CCCC(=O)O [ICOSAPENT] | > 30 | > 30 | > 30 | 25.3 | > 30 | > 30 | > 30 | > 30 | > 30 | > 30 | 9.84 | > 30 | > 30 | > 30 | > 10 | > 30 | > 30
O=C(O)CCCN1CCC(O[C@@H](c2ccc(Cl)cc2)c2ccccn2)CC1 [BEPOTASTINE] | > 30 | > 30 | > 30 | > 30 | > 30 | > 30 | > 30 | > 30 | > 30 | > 30 | > 30 | > 30 | > 30 | > 30 | > 30 | > 30 | > 30
Nc1ccc(C(=O)O)cc1 [AMINOBENZOIC ACID] | > 30 | > 30 | > 30 | > 30 | > 30 | > 30 | > 30 | > 30 | > 30 | > 30 | 2.18 | > 30 | > 30 | > 30 | 4.69 | > 30 | > 30
CCCC1C(=O)N2C(N(C)C)=Nc3ccc(C)cc3N2C1=O (configuration not stated) [APAZONE] | > 30 | > 30 | > 30 | 3.84 | > 30 | > 30 | > 30 | > 30 | > 30 | > 30 | 6.16 | > 30 | > 30 | > 30 | 8.41 | > 30 | > 30
COc1ccc(-c2cc(=O)c3c(O)cc(O[C@@H]4O[C@H](CO[C@@H]5O[C@@H](C)[C@H](O)[C@@H](O)[C@H]5O)[C@@H](O)[C@H](O)[C@H]4O)cc3o2)cc1O [DIOSMIN] | > 30 | > 30 | > 30 | > 30 | > 30 | > 30 | > 30 | > 30 | > 30 | > 30 | > 30 | > 30 | > 30 | > 30 | > 30 | > 30 | > 30
C1N2CN3CN1CN(C2)C3 [METHENAMINE] | > 30 | > 30 | > 30 | > 30 | > 30 | > 30 | > 30 | > 30 | > 30 | > 30 | > 30 | > 30 | > 30 | > 30 | > 30 | > 30 | > 30
CS(=O)(=O)Nc1cc2occ(NC=O)c(=O)c2cc1Oc1ccccc1 [IGURATIMOD] | > 30 | > 30 | > 30 | 1.44 | > 30 | > 30 | > 30 | > 30 | > 30 | > 30 | 4.33 | > 30 | > 30 | > 30 | 4.51 | > 30 | > 30

— ChEMBL document CHEMBL5291721, “A preclinical secondary pharmacology resource illuminates target-adverse drug reaction associations of marketed drugs” (Nat Commun, 2023)
